Assay results from patent US12404304B1, “Telomerase reverse transcriptase (TERT) expression enhancing compounds and methods for using the same” (Sierra Sciences, LLC, priority 2007, dated 2025).

Tests used:
[1] = test system: viable cells in culture; assay: Cell viability assay (CellTiter-Glo Luminescent Cell Viability Assay, ATP quantitation, percent of vehicle control)
[2] = test system: human TERT expression (hTERT mRNA); assay: Quantitative real-time RT-PCR of hTERT mRNA expression (Ct, transcripts) in compound-treated cells; assay type: cell-based; conditions: quantitative real-time RT-PCR
Procedure, shortened: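 Read-out is cycle threshold, the cycle at which probe fluorescence released by Taq 5′-nuclease activity crosses a set level; Ct falls as hTERT mRNA rises. cDNA of treated and untreated cells was compared, with starting transcripts quantified against a known-cDNA standard curve.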

Row | Structure (SMILES) | Average Cell Viability after 24 Hours (% DMSO) [1] [% DMSO] | Average Number of hTERT Transcripts [2]
1 | Cc1cccc(NC(=O)c2c(NC(=O)c3ccncc3)sc3c2CCC(C(C)(C)C)C3)c1 (centres unmarked) [compound 1233] | 61.61 | 41.94
2 | Cn1c2c(c(=O)[nH]c1=O)C(c1ccccc1)C1=C(N2)c2ccccc2C1=O (centres unmarked) [compound 1234] | 53.62 | 62.81
3 | Cn1c(=O)c2c(nc(SCc3cc4c(cc3Cl)OCO4)n2C)n(C)c1=O [compound 1235] | 75.75 | 153.66
4 | CCc1ccc(S(=O)(=O)N(C(=O)c2ccccc2)c2ccc3oc(C)c(C(C)=O)c3c2)cc1 [compound 1236] | 86.61 | 5.24
5 | CCCCOC(=O)c1c(C)oc2ccc(NS(=O)(=O)c3ccc4ccccc4c3)cc12 [compound 1237] | 71.28 | 43.79
6 | O=C(O)c1c(-c2ccccc2)c2oc3ccccc3c2[nH]c1=O [compound 1238] | 89.10 | 5.16
7 | CCCCCOC(=O)c1c(C)oc2ccc(NS(=O)(=O)c3ccc(OC)cc3)cc12 [compound 1239] | 66.47 | 31.94
8 | Cc1ccc(-n2c(=O)oc3ccc(Cl)cc3c2=O)cc1 [compound 1241] | 77.91 | 39.79
9 | COc1ccccc1-n1c(=O)oc2ccc(Cl)cc2c1=O [compound 1242] | 80.60 | 56.42
10 | COc1ccc(COC(=O)C2=C(C)NC3=C(C(=O)CC(c4ccco4)C3)C2c2cccs2)cc1 (centres unmarked) [compound 1243] | 99.98 | 5.18
11 | CCOC(=O)C1=C(C)NC2=C(C(=O)CC(c3ccccc3)C2)C1c1cccc(F)c1 (centres unmarked) [compound 1244] | 80.52 | 9.34
12 | CC1=C(C(=O)OC2CCCC2)C(c2cccc(F)c2)C2=C(CC(c3cccs3)CC2=O)N1 (centres unmarked) [compound 1245] | 79.22 | 8.42
13 | CC1=C(C(=O)OC2CCCCCC2)C(c2ccc([N+](=O)[O-])cc2)C2=C(CC(C)(C)CC2=O)N1 (centres unmarked) [compound 1246] | 83.08 | 27.65
14 | CC1=C(C(=O)OC2CCCC2)C(c2ccc(Br)cc2)C2=C(CC(C)(C)CC2=O)N1 (centres unmarked) [compound 1247] | 95.77 | 74.16
15 | COC(=O)CSC1=C(C#N)C(c2ccco2)C(C(=O)Nc2ccc(Cl)cc2)=C(C)N1 (centres unmarked) [compound 1248] | 57.47 | 4.69
16 | Brc1n[nH]c2ncnc(N3CCCC3)c12 [compound 1249] | 77.92 | 27.87
17 | Cc1cc(C2CCCCC2)n(O)c(=O)c1 [compound 1250] | 67.25 | 184.64
18 | O=S(=O)(c1cccc(F)c1)N1CCC(Oc2ccc(-n3cnnn3)cc2)CC1 [compound 1251] | 65.10 | 23.22
19 | Oc1ccc2nc(N3CCOCC3)sc2c1 [compound 1252] | 96.63 | 4.21
20 | CCC(O)c1nc2ccccc2n1CCOc1cccc(OC)c1 (centres unmarked) [compound 1253] | 91.13 | 3.09
21 | COc1ccc(OC)c(NC(=O)CSc2ccc(-c3ccccn3)nn2)c1 [compound 1254] | 66.42 | 47.45
22 | O=C(CSc1ccc(-c2ccccn2)nn1)Nc1ccc2c(c1)OCO2 [compound 1255] | 76.32 | 56.91
23 | O=C(CSc1ccc(-c2ccccn2)nn1)Nc1ccc2c(c1)OCCO2 [compound 1256] | 73.30 | 33.82
24 | O=C(CSc1ccc(-c2ccccn2)nn1)Nc1ccccc1F [compound 1257] | 82.05 | 37.50
25 | Brc1ccc(CSc2ccc(-c3ccccn3)nn2)cc1 [compound 1258] | 53.72 | 12.89
26 | COc1cc(NC(=O)CSc2ccc(-c3ccccn3)nn2)cc(OC)c1 [compound 1259] | 60.54 | 10.70
27 | Clc1cccc(CSc2ccc(-c3ccccn3)nn2)c1 [compound 1260] | 60.48 | 17.25
28 | NC(=O)C1CCN(c2nc3c(S(=O)(=O)c4cccc(Cl)c4)nnn3c3ccsc23)CC1 [compound 1261] | 85.18 | 40.28

Row | Structure (SMILES) | Average Cell Viability after 24 Hours (% DMSO) [1] [% DMSO] | Average Number of hTERT Transcripts [2]
29 | CCOc1cc(Br)cc(/C=N/NC(=O)COc2cccc(C)c2)c1O [compound 1262] | 57.61 | 8.78
30 | Cc1ccc(O)c(/C=N/NC(=O)c2ccc(Br)cc2)c1 [compound 1263] | 64.51 | 53.36
31 | O=C(N/N=C/c1cc(Cl)ccc1O)c1ccc(Br)cc1 [compound 1264] | 64.22 | 33.41
32 | O=C(N/N=C/c1ccccn1)c1ccccc1 [compound 1265] | 81.94 | 4.42
33 | O=C(N/N=C/c1c(O)ccc2ccccc12)c1ccc(Cl)c(Cl)c1 [compound 1266] | 50.17 | 14.59
34 | O=C(N/N=C/c1ccccc1O)c1sc2ccccc2c1Cl [compound 1267] | 38.10 | 3.76
35 | O=C(N/N=C/C=C/c1ccccc1)c1ccccc1O [compound 1268] | 80.84 | 14.70
36 | O=C(N/N=C/c1cc(Br)ccc1O)c1cc2ccccc2cc1O [compound 1269] | 68.44 | 93.93
37 | CC(C)(C)c1ccc(C(=O)N/N=C/c2c(O)ccc3ccccc23)cc1 [compound 1270] | 59.66 | 34.64
38 | Oc1c(Br)cc(Br)cc1/C=N/Nc1ccccn1 [compound 1271] | 57.70 | 38.63
39 | Cn1cc(C(=O)N/N=C/c2c(O)ccc3ccccc23)ccc1=O [compound 1272] | 57.10 | 33.61
40 | Cc1ccc(NCC(=O)N/N=C\c2cc(Br)cc(Br)c2O)cc1 [compound 1273] | 75.55 | 40.65
41 | O=C(N/N=C/c1cc(Br)cc(I)c1O)c1ccccn1 [compound 1274] | 75.52 | 20.59
42 | C/C(=N\NC(=O)Cc1ccc(Cl)cc1)c1ccccn1 [compound 1275] | 71.98 | 127.83
43 | O=C(NNC1=C(C(=O)C(F)(F)F)CCC1)c1ccc(Br)cc1 [compound 1276] | 92.70 | 9.73
44 | Cc1occc1C(=O)N/N=C/c1cc(I)cc(I)c1O [compound 1277] | 68.53 | 24.11
45 | O=C(Cc1ccccc1)NNC1=C(C(=O)C(F)(F)F)CCC1 [compound 1278] | 74.57 | 35.46
46 | COc1cccc(C=NNC(=O)C(C)Nc2cccc3ccccc23)c1O (centres unmarked) [compound 1279] | 63.90 | 25.71
47 | Cc1cc(C(=O)N/N=C/c2cc(Br)ccc2O)c(C)o1 [compound 1280] | 59.52 | 9.80
48 | CCC(Nc1ccc(Br)cc1)C(=O)N/N=C/c1c(O)ccc2ccccc12 (centres unmarked) [compound 1281] | 56.81 | 8.35
49 | Cc1cc(C(=O)N/N=C/c2ccccc2O)c(C)o1 [compound 1282] | 68.67 | 27.61
50 | O=C(N/N=C/c1cccc2cccnc12)c1ccc2c(c1)OCO2 [compound 1283] | 68.25 | 18.81
51 | CC(Oc1cccc2ccccc12)C(=O)NN=Cc1cccc2cccnc12 (centres unmarked) [compound 1284] | 73.23 | 44.70
52 | O=c1cnnc(N/N=C/c2ccccn2)[nH]1 [compound 1285] | 65.50 | 97.75
53 | O=C(Cc1ccccc1)N/N=C/c1cccc2cccnc12 [compound 1286] | 75.11 | 29.62
54 | O=C(COc1ccc(F)cc1)N/N=C/c1cccc2cccnc12 [compound 1287] | 67.01 | 12.08
55 | COc1ccccc1OCC(=O)N/N=C/c1cccc2cccnc12 [compound 1288] | 78.28 | 18.81
